# Entries after “also recorded” stand apart in the source; their conditions may differ. Peptide text beside a SMILES is read from it. * marks the point of attachment. Cbz = O=C(OCc1ccccc1)*
# Assays:
# [1] = molecular target: T1, 3HA-PYL8 (Arabidopsis thaliana, UniProt Q9FGM1); assay: In vivo protein degradation assay (cycloheximide time course, immunoblot); conditions: 8-d-old seedlings treated with cycloheximide
# T1 construct: expressed in transfected cells; host or cells: stably transformed Arabidopsis thaliana (Col-0) plants, line oe3HA-PYL8: seedlings or imbibed seeds; seed lines in pyl8-1 background, some crossed with oeDDA1-GFP
# T1 sequence (Q9FGM1 1-188): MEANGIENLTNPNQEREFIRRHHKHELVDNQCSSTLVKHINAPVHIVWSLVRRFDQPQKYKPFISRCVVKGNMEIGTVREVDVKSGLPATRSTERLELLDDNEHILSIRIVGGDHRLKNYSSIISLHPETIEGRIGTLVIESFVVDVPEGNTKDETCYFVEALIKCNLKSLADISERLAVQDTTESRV
# Method: (§1) For protein extraction from seedlings, proteins were extracted in buffer containing 50 mM Tris-HCl pH 7.4, 150 mM NaCl, 10mM MgCl2, 1 mM PMSF, 0.1%NP-40 and 1× complete protease inhibitor (Roche). After centrifugation at 16,000 g at 4° C., the supernatants were collected. This step was repeated twice. For protein extraction from seeds, seeds were frozen in liquid N2 and then homogenized in buffer containing 7 M urea, 2 M thiourea, 4% 3-[(3-cholamidopropyl)dimethylammonio]-1-propanesulfonate (CHAPS; w/v), 18 mM Tris-HCl pH 7.5, 0,2% Triton X100, 1× complete protease inhibitor (Roche). After 10 min incubation at 4° C. with rotation. DTT was added to protein extracts (14 mM final concentration), prior to 20 min incubation at 4° C. Extracts were clarified by centrifugation as afore-mentioned. Protein concentration in final supernatants was determined using a Bio-Rad Protein Assay kit. For in vivo co-immunoprecipitation assays, normalized seedling protein extracts were incubated with 5 μl anti-GFP antibody (Living colors Full length A.V. Polyclonal Antibody, Clontech) for 1 h at 4° C. with rotation. 10 μl of protein A-coupled beads (prewashed twice with 0.1 M Glycine pH 2.7) were added to the samples and incubated for an additional hour at 4° C. with rotation. […]
# [2] = molecular target: T1, 3HA-PYL8; assay: Immunoblot of 3HA-PYL8 levels in imbibed seeds; assay type: in vivo; conditions: 24 h in MS media with 3 μM ABA
# Method: (G) Immunoblot analysis of 3HA-PYL8 levels in seeds corresponding to oe3HA-PYL8/oeDDA1-GFP and control (oe3HA-PYL8) plants. Both lines were in the pyl8-1 background. Prior to protein extraction, imbibed seeds were maintained for 24 h in MS media with or without 3 μM ABA. Anti-HA and anti-RPT5 antibodies were used to detect 3HA-PYL8 and for loading control purposes, respectively.
# as §1, with “kit.” for “kit. For in vivo co-immunoprecipitation assays, normalized seedling protein extracts were incubated with 5 μl anti-GFP antibody (Living colors Full length A.V. Polyclonal Antibody, Clontech) for 1 h at 4° C. with rotation. 10 μl of protein A-coupled beads (prewashed twice with 0.1 M Glycine pH 2.7) were added to the samples and incubated for an additional hour at 4° C. with rotation.”
# [3] = test system: HA-PYL8 transcript; assay: HA-PYL8 transcript levels in ABA-treated seeds (semiquantitative RT-PCR); assay type: in vivo, Arabidopsis; conditions: oeHA-PYL8 seeds, ABA treatment for 24 h
# Method: Semiquantitative PCR experiments from seedlings were performed using RNA prepared as afore-mentioned. RNA extraction from seeds was carried out as previously described (Onate-Sanchez and Vicente-Carbajosa, 2008). cDNA from all tissues was synthetized as described above. […] of one-fifth diluted cDNA was used to amplify DDA1-GFP, 3HA-PYL8 and the housekeeping gene ACTIN8 using the following primer:
# The PCR conditions were as follows: 1 min at 94° C., 35 cycles of 15 s at 94° C., 1 min at 58-62° C., and 1 min 30 s at 72° C., and finally, 5 min at 72° C. 25
# [4] = molecular target: T2, PP2C-ABA-PYL8 ternary complexes (Arabidopsis thaliana, UniProt Q9FGM1); conditions: ternary complex of PYL8 with ABA and clade A PP2C; cited from earlier work
# T2 sequence (Q9FGM1 1-188): T1 sequence (Q9FGM1 1-188)
# [5] = test system: PYL8 gene expression; conditions: after 3 h of ABA treatment; cited from earlier work
# [6] = test system: 3HA-PYL8; assay: MG132 treatment of oe3HA-PYL8 seedlings, anti-HA immunoblot; assay type: in vivo, Arabidopsis; conditions: 9-d-old oe3HA-PYL8 seedlings, 50 μM MG132, 2 h, vs mock
# Method: To determine whether PYL8 is a substrate of the UPS, we treated Arabidopsis seedlings expressing a 3×HA-tagged PYL8 fusion (oe3HA-PYL8) with proteasome inhibitor MG132. […] Moreover, upon proteasome inhibition several bands of high MW were detected, likely corresponding to ubiquitinated 3HA-PYL8 forms.
# as §1, with “kit.” for “kit. For in vivo co-immunoprecipitation assays, normalized seedling protein extracts were incubated with 5 μl anti-GFP antibody (Living colors Full length A.V. Polyclonal Antibody, Clontech) for 1 h at 4° C. with rotation. 10 μl of protein A-coupled beads (prewashed twice with 0.1 M Glycine pH 2.7) were added to the samples and incubated for an additional hour at 4° C. with rotation.”
Compound,3HA-PYL8 degradation ([1]; 50 μM ABA),3HA-PYL8 accumulation in seeds [2],HA-PYL8 transcript levels [3],Kd [4],PYL8 gene expression [5],3HA-PYL8 protein accumulation [6],"3HA-PYL8 destabilization/accumulation ([1]; 50 μM MG132, oe3HA-PYL8 and oe3HA-PYL8/oeDDA1-GFP)"
"CC1=CC(=O)CC(C)(C)[C@@]1(O)/C=C/C(C)=C\C(=O)O [ABA, abscisic acid]",blocked 3HA-PYL8 degradation,increased accumulation of 3HA-PYL8,reduced HA-PYL8 transcript levels,20 to 40 nM,reduces PYL8 gene expression,,
CC(C)C[C@@H](C=O)NC(=O)[C@H](CC(C)C)NC(=O)[C@H](CC(C)C)NC(=O)OCc1ccccc1 [MG132] (Cbz-Leu-Leu-Leu-aldehyde),,,,,,increased 3HA-PYL8 protein accumulation; also recorded: stabilizes 3HA-PYL8,attenuated 3HA-PYL8 destabilization; also recorded: increased accumulation of 3HA-PYL8
